Assay type in all cases: cell-based, human
The test system of one data set is CD207. Briefly: siRNA dose response, CD207 mRNA knockdown, Dual-Glo Luciferase Assay. The settings on record: Hepal-6 + reporter plasmid, 24 hr. As to the method:
(§1) Dose response curves for siRNAs were generated in vitro using a variety of cell lines according to Table 4.
(§2) Briefly, cells were seeded in 96-well plates and reverse transfected with siRNA, Lipofectamine® 2000 (0.5 uL/well; ThermoFisher), and, in some cases, a reporter plasmid (50 ng/well). The reporter plasmid (psiCHECK™-2, Promega) encoded both firefly luciferase and the gene of interest fused to renilla luciferase; silencing of the gene of interest results in proportional silencing of renilla luciferase but leaves firefly luciferase unaffected as an internal control.
(§3) After 24 hr incubation at 37° C., mRNA knockdown was measured using an endpoint assay. For targets without a reporter plasmid, a branched DNA (bDNA) assay was performed according to the manufacturer's instructions (QuantiGene® Singleplex Gene Expression Assay, ThermoFisher) to measure both the target gene and GAPDH (housekeeping gene) mRNA. Data are plotted as siRNA concentration (nM) vs. remaining mRNA (ratio of target gene to GAPDH, normalized to mock siRNA-transfected cells). For targets with a reporter plasmid, a Dual-Glo® Luciferase Assay was performed according to the manufacturer's instructions (Promega) to measure firefly and renilla luciferase expression. Data are plotted as siRNA concentration (nM) vs. remaining mRNA (ratio of renilla to firefly luminescence, normalized to mock siRNA-transfected cells).
(§4) For all dose response curves, a 4-parameter logistic model was applied to determine the IC50 of each siRNA sequence (Table 5 and FIG. 2). Data shown in Table 5 and FIG. 2 represent the mean of quadruplicates, +/−standard deviation.

Another data set has as its system IGSF6. Briefly: siRNA dose response, IGSF6 mRNA knockdown, Dual-Glo Luciferase Assay. Conditions: Hepa1-6 + reporter plasmid, 24 hr. The procedure: as §1, §2, §3, §4
In another data set the test system is CLEC7A. Description: siRNA dose response, CLEC7A mRNA knockdown, Dual-Glo Luciferase Assay. Conditions: Hepa1-6 + reporter plasmid, 24 hr. As to the method: as §1, §2, §3, §4
The test system of the next data set is LILRB2. Description: siRNA dose response, LILRB2 mRNA knockdown, Dual-Glo Luciferase Assay. Conditions: Hepa1-6 + reporter plasmid, 24 hr. As to the method:
as §1, §2, §3, §4

One may read the IC50 as the concentration that gives 50% inhibition. On to “XD-09245: siRNA targeting CD207 (sense 5'-gcGuucAGAuccAgAuGGudTsdT-3'; antisense 5'-ACcAUCUGGAUCUGAACGCdTsdT-3'; as printed in the source, key not given here)”, for which the IC50 in the data set with CD207 was 0.02 nM. Take “XD-09246: siRNA targeting CD207 (sense 5'-aaAuAcAAAGAuccGGGcAdTsdT-3'; antisense 5'-UGCCCGGAUCUUUGuAUUUdTsdT-3'; as printed in the source, key not given here)”: the IC50 in the data set on CD207 was determined as 0.025 nM. As for “XD-09248: siRNA targeting CD207 (sense 5'-uauucuAcAGGuGguuucudTsdT-3'; antisense 5'-AGAAACcACCUGuAGAAuAdTsdT-3'; as printed in the source, key not given here)”, the 50% inhibitory concentration (IC50) with CD207 was below 0.005 nM.

Consider “XD-09249: siRNA targeting CD207 (sense 5'-uauAGuGccGAGcaGuucudTsdT-3'; antisense 5'-AGAACUGCUCGGcACuAuAdTsdT-3'; RNA with 2'-O-methyl and phosphorothioate modifications, case key not given here, as printed in the source, key not given here)”, for which the IC50 in the data set on CD207 stood at 0.153 nM. With “XD-09642: siRNA targeting IGSF6 (sense 5'-gaAGcGAGAGcuAaAcAGAdTsdT-3'; antisense 5'-UCUGUUuAGCUCUCGCUUCdTsdT-3'; RNA with 2'-O-methyl and phosphorothioate modifications, case key not given here, as printed in the source, key not given here)”, the concentration for half-maximal inhibition (IC50) with IGSF6 was determined as 0.035 nM. As to “XD-09643: siRNA targeting IGSF6 (sense 5'-guGcucGGcGuAuuuuucAdTsdT-3'; antisense 5'-UGAAAAAuACGCCGAGcACdTsdT-3'; as printed in the source, key not given here)”, the half-maximal inhibitory concentration (IC50) in the data set with IGSF6 was 0.077 nM. For the substance “XD-09645: siRNA targeting IGSF6 (sense 5'-agAAcuAuAccAuaAGAGAdTsdT-3'; antisense 5'-UCUCUuAUGGuAuAGUUCUdTsdT-3'; as printed in the source, key not given here)”, the IC50 with IGSF6 is 0.034 nM. In the case of “XD-09646: siRNA targeting IGSF6 (sense 5'-ccAuAAGAGAcAuguGGAAdTsdT-3'; antisense 5'-UUCcAcAUGUCUCUuAUGGdTsdT-3'; RNA with 2'-O-methyl and phosphorothioate modifications, case key not given here, as printed in the source, key not given here)”, in the data set with IGSF6, the IC50 worked out at 0.01 nM. Turning to “XD-09647: siRNA targeting IGSF6 (sense 5'-ggccAuAGAAAcGuuuuAAdTsdT-3'; antisense 5'-UuAAAACGUUUCuAUGGCCdTsdT-3'; as printed in the source, key not given here)”, the half-maximal inhibitory concentration (IC50) with IGSF6 amounted to 0.069 nM.

With “XD-09648: siRNA targeting IGSF6 (sense 5'-ccAuAGAAAcGuuuuAAuudTsdT-3'; antisense 5'-AAUuAAAACGUUUCuAUGGdTsdT-3'; as printed in the source, key not given here)”, the concentration for half-maximal inhibition (IC50) in the data set with IGSF6 amounted to 0.503 nM. On to “XD-10561: siRNA targeting CLEC7A (sense 5'-ggucAAGAuAAAugcAGAAdTsdT-3'; antisense 5'-UUCUGcAUUaAUCUUAACCdTsdT-3'; RNA with 2'-O-methyl and phosphorothioate modifications, case key not given here, as printed in the source, key not given here)”, for which the IC50 in the data set with CLEC7A worked out at 0.009 nM. Regarding “XD-10562: siRNA targeting CLEC7A (sense 5'-agGuAGGcuAGuAuuAuuudTsdT-3'; antisense 5'-AAAuAAuACuAGCCuACCUdTsdT-3'; as printed in the source, key not given here)”, in the data set with CLEC7A, the IC50 amounted to 0.033 nM. On to “XD-10564: siRNA targeting CLEC7A (sense 5'-ggGuAAGccAuAAgcGaaudTsdT-3'; antisense 5'-AUUCGCUuAUGGCUuACCCdTsdT-3'; RNA with 2'-O-methyl and phosphorothioate modifications, case key not given here, as printed in the source, key not given here)”, for which the IC50 in the data set on CLEC7A is below 0.004 nM. As for “XD-10565: siRNA targeting CLEC7A (sense 5'-ccAuAAGcGAAucuuAAuudTsdT-3'; antisense 5'-AAUuAAGAUUCGCUuAUGGdTsdT-3'; RNA with 2'-O-methyl and phosphorothioate modifications, case key not given here, as printed in the source, key not given here)”, in the data set with CLEC7A, the half-maximal inhibitory concentration (IC50) was below 0.004 nM. With “XD-10566: siRNA targeting CLEC7A (sense 5'-ugccAuAucucuAauAGAAdTsdT-3'; antisense 5'-UUCuAUuAGAGAuAUGGcAdTsdT-3'; RNA with 2'-O-methyl and phosphorothioate modifications, case key not given here, as printed in the source, key not given here)”, the IC50 with CLEC7A turned out to be 0.006 nM.

With “XD-10567: siRNA targeting CLEC7A (sense 5'-gccuAGAAucuuGuAuAAudTsdT-3'; antisense 5'-AUuAuAcAAGAUUCuAGGCdTsdT-3'; as printed in the source, key not given here)”, in the data set with CLEC7A, the IC50 came out at 0.023 nM. Turning to “XD-10568: siRNA targeting CLEC7A (sense 5'-ccuAGAAucuuGuauAAuAdTsdT-3'; antisense 5'-uAUuAuAcAAGAUUCuAGGdTsdT-3'; as printed in the source, key not given here)”, in the data set with CLEC7A, the IC50 was 0.016 nM. “XD-10569: siRNA targeting CLEC7A (sense 5'-gcucucAuAGGAAaGuuuudTsdT-3'; antisense 5'-AAAACUUUCCuAUGAGAGCdTsdT-3'; as printed in the source, key not given here)”: the IC50 in the data set with CLEC7A worked out at 0.016 nM. Regarding “XD-10590: siRNA targeting LILRB2 (sense 5'-caGcAuCuuGGAuuAcAcsa-3'; antisense 5'-dTGUGuAAUCcAAGAUGCUGusu-3'; RNA with 2'-O-methyl and phosphorothioate modifications, case key not given here, as printed in the source, key not given here)”, in the data set on LILRB2, the IC50 turned out to be 0.068 nM. As for “XD-10591: siRNA targeting LILRB2 (sense 5'-ggAuAcGAccAGAgcuugsa-3'; antisense 5'-dTCAAGCUCUGGUCGuAUccusu-3'; RNA with 2'-O-methyl and phosphorothioate modifications, case key not given here, as printed in the source, key not given here)”, in the data set on LILRB2, the IC50 worked out at 0.073 nM. The same measure, in the same setting: the result for “XD-10592: siRNA targeting LILRB2 (sense 5'-gcGAuAUGGcuGucAGuasa-3'; antisense 5'-dTUACUGAcAGCcAUAUCGCusu-3'; RNA with 2'-O-methyl and phosphorothioate modifications, case key not given here, as printed in the source, key not given here)” reads 0.459 nM; that for “XD-10593: siRNA targeting LILRB2 (sense 5'-cuAuGGUuAuGAcuuGAasa-3'; antisense 5'-dTUUcAAGUcAuAACcAuAGusu-3'; RNA with 2'-O-methyl and phosphorothioate modifications, case key not given here, as printed in the source, key not given here)”, 0.136 nM. For “XD-10594: siRNA targeting LILRB2 (sense 5'-gguuAuGAcuuGAccucusa-3'; antisense 5'-dTAGAGUUcAAGUcAuAACCusu-3'; RNA with 2'-O-methyl and phosphorothioate modifications, case key not given here, as printed in the source, key not given here)”, the IC50 in the data set with LILRB2 is 0.089 nM. With “XD-10597: siRNA targeting LILRB2 (sense 5'-cccAcuCcGucuAaGAucsa-3'; antisense 5'-dTGAUCUuAGACGGAGUGGGusu-3'; RNA with 2'-O-methyl and phosphorothioate modifications, case key not given here, as printed in the source, key not given here)”, the IC50 in the data set with LILRB2 was 0.059 nM. On the same count and under the same terms, in the case of “XD-10598: siRNA targeting LILRB2 (sense 5'-ccAcucCGucuAAgAucasa-3'; antisense 5'-dTUGAUCUuAGACGGAGUGGusu-3'; as printed in the source, key not given here)” it was 0.109 nM; in that of “XD-10599: siRNA targeting LILRB2 (sense 5'-cacuccGucuAAGaucAasa-3'; antisense 5'-dTUUGAUCUuAGACGGAGUGusu-3'; RNA with 2'-O-methyl and phosphorothioate modifications, case key not given here, as printed in the source, key not given here)”, 0.127 nM.

Source of the values: patent publication US20210189342A1, “COMPOSITIONS AND METHODS FOR MODULATING MONOCYTE AND MACROPHAGE INFLAMMATORY PHENOTYPES AND IMMUNOTHERAPY USES THEREOF” (Verseau Therapeutics, Inc., priority 2018, published 2021).
